Experiment [1] is described as follows: Cytotoxicity against human KATO III cells after 72 hrs by MTT assay. The format is functional, cell-based, KATO III cell. In general terms: Tetrazolium assays rely on reduction of a dye to a coloured formazan, in cell work by metabolically active cells.
Experiment [2] deals with Ehrlich. The experiment is described as follows: Cytotoxicity against mouse Ehrlich cells after 72 hrs by MTT assay. The experiment is classed as functional, cell-based.

Values after ≈ are worked out from the molar mass of the structure shown.

As usually defined, the IC50 is the point on the concentration scale where inhibition reaches its midpoint.

In the case of `CC(C)c1cccc(=O)c(O)c1` [HINOKITIOL], the IC50 in experiment [1] and in experiment [2] was 0.6 µg/mL (≈ 3.65 µM) each time.
As for `C=C(C)[C@@H]1C[C@H]2O[C@@]23C(=CC(=O)[C@]2(C)[C@@H](/C(C)=C\C(O)CC(C)C(=O)O)C[C@@H](O)[C@]23C)[C@@]1(C)CCC(=O)OC` (some centres undefined), the IC50 in experiment [1] and in experiment [2] was 1.1 µg/mL (≈ 2.02 µM) each time.

The values above are taken from ChEMBL document CHEMBL1148124, “New lanostanoids, elfvingic acids A-H, from the fruit body of Elfvingia applanata” (J Nat Prod, 2002).
